Data reported in ChEMBL document CHEMBL4831559, “Antitarget Selectivity and Tolerability of Novel Pyrrolo[2,3-d]pyrimidine RET Inhibitors” (ACS Med Chem Lett, 2021).
One block for each compound: values may come before it. Active and inactive are the calls of the source. No cut-off for these calls is given here.

What was measured:
BaF3 [1] = experiment: cells; conditions: Mus musculus, BaF3, 48 h
Description: Antiproliferative activity against mouse BaF3 cells assessed as reduction in cell proliferation incubated for 48 hrs by cell proliferation assay

[2] = Oral bioavailability in BALB/c mouse at 10 mg/kg measured by LC-MS/MS analysis; assay type: ADME, organism-based; conditions: in vivo
[3] = AUC in BALB/c mouse at 2 mg/kg, iv measured by LC-MS/MS analysis; assay type: ADME, organism-based; set-up: dose 2 mg/kg; conditions: in vivo
[4] = Toxicity in nude mouse transfected with mouse KIF5B-RET BaF3 cells assessed as adverse effect at 30 mg/kg, po qd measured after 14 days; assay type: organism-based; conditions: in vivo, 336 h, time 14 day
[5] = AUC in nude mouse xenografted with KIF5B-RET BaF3 cells xenografted at 3 mg/kg, po qd for 14 days; assay type: ADME, organism-based; set-up: time 14 day, dose 3 mg/kg; conditions: in vivo
[6] = fCmax in nude mouse xenografted with KIF5B-RET BaF3 cells xenografted at 3 mg/kg, po qd for 4 days; conditions: in vivo, 96 h
[7] = Cmax in BALB/c mouse at 10 mg/kg, po measured by LC-MS/MS analysis; assay type: ADME, organism-based; set-up: route oral, dose 10 mg/kg; conditions: in vivo
[8] = Cmax nude mouse xenografted with KIF5B-RET BaF3 cells xenografted at 3 mg/kg, po qd for 14 days; assay type: ADME, organism-based; set-up: route oral, time 14 day, dose 3 mg/kg; conditions: in vivo
[9] = Clearance in BALB/c mouse at 2 mg/kg, iv measured by LC-MS/MS analysis; assay type: ADME, organism-based; conditions: in vivo
[10] = Volume of distribution at steady state in BALB/c mouse at 2 mg/kg, iv measured by LC-MS/MS analysis; assay type: ADME, organism-based; conditions: in vivo, read-out: Vdss
[11] = molecular target: T1, Voltage-gated inwardly rectifying potassium channel KCNH2 (Homo sapiens, UniProt Q12809); experiment: Inhibition of human ERG expressed in CHO cells by manual patch clamp assay; assay type: cell-based
T1 sequence (Q12809 whole entry): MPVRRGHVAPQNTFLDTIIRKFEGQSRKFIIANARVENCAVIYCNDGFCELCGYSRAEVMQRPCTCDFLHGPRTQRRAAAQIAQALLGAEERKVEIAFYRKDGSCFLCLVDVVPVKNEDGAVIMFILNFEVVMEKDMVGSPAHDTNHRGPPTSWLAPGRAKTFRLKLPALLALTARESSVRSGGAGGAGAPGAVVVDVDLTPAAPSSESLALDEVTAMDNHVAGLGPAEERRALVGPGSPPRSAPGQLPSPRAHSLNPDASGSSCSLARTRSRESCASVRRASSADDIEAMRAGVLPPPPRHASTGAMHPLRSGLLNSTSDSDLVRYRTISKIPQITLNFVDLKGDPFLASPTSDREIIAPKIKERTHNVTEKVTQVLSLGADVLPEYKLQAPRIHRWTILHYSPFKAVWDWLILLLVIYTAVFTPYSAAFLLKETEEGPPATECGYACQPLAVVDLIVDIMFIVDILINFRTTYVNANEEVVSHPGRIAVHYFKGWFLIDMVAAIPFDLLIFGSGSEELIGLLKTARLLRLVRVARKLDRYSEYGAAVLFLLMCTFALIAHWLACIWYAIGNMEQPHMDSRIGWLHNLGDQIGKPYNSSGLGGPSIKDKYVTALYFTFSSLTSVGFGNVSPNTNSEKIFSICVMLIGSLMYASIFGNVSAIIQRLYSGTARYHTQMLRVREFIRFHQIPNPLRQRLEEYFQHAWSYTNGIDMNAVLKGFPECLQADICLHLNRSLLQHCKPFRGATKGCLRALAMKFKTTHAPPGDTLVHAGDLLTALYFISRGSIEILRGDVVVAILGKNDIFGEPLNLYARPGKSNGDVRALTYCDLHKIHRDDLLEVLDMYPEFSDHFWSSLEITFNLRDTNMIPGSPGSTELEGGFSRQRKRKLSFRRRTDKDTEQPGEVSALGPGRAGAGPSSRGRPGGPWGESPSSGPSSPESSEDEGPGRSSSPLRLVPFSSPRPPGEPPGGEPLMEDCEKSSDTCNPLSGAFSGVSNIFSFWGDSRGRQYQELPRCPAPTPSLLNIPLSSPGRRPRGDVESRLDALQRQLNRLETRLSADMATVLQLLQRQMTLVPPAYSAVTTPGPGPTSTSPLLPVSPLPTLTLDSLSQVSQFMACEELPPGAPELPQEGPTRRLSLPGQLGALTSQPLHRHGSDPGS

[12] = fAUC in nude mouse xenografted with KIF5B-RET BaF3 cells xenografted at 3 mg/kg, po qd for 4 days; conditions: in vivo, 96 h
[13] = AUC in BALB/c mouse at 10 mg/kg, po measured by LC-MS/MS analysis; assay type: ADME, organism-based; set-up: dose 10 mg/kg; conditions: in vivo
[14] = Half life in BALB/c mouse at 2 mg/kg, iv measured by LC-MS/MS analysis; assay type: ADME, organism-based; conditions: in vivo
BaF3 [15] = experiment: Antitumor activity against mouse KIF5B-RET BaF3 cells xenografted in nude mouse assessed as tumor regression at 3 mg/kg, po qd measured after 12 days; conditions: time 12.0 day
[16] = Cmax in BALB/c mouse at 2 mg/kg, iv measured by LC-MS/MS analysis; assay type: ADME, organism-based; set-up: route intravenous, dose 2 mg/kg; conditions: in vivo
[17] = Toxicity in nude mouse transfected with mouse KIF5B-RET BaF3 cells assessed as adverse effect at 10 mg/kg, po qd measured after 14 days; assay type: organism-based; conditions: in vivo, 336 h, time 14 day
[18] = molecular target: T1, Voltage-gated inwardly rectifying potassium channel KCNH2; experiment: Displacement of [3H]-dofetilide from human ERG expressed in CHO cell after 90 mins by microbeta liquid scintillation counting method; assay type: cell-based
[19] = Half life in BALB/c mouse at 10 mg/kg, po measured by LC-MS/MS analysis; assay type: ADME, organism-based; conditions: in vivo
[20] = Plasma protein binding in mouse at 5 uM measured after 16 hrs by LC-MS/MS based rapid equilibrium dialysis analysis; assay type: ADME, cell-free; conditions: read-out: PPB (converted)
Bcr/Abl fusion protein = Bcr/Abl fusion protein (Homo sapiens, UniProt P00519); experiment: Inhibition of BCR-ABL (unknown origin) expressed in mouse BaF3 cells assessed as reduction in cell proliferation incubated for 48 hrs by cell proliferation assay; assay type: cell-based
Chain of Bcr/Abl fusion protein (P00519 whole entry, the tested form may be a part): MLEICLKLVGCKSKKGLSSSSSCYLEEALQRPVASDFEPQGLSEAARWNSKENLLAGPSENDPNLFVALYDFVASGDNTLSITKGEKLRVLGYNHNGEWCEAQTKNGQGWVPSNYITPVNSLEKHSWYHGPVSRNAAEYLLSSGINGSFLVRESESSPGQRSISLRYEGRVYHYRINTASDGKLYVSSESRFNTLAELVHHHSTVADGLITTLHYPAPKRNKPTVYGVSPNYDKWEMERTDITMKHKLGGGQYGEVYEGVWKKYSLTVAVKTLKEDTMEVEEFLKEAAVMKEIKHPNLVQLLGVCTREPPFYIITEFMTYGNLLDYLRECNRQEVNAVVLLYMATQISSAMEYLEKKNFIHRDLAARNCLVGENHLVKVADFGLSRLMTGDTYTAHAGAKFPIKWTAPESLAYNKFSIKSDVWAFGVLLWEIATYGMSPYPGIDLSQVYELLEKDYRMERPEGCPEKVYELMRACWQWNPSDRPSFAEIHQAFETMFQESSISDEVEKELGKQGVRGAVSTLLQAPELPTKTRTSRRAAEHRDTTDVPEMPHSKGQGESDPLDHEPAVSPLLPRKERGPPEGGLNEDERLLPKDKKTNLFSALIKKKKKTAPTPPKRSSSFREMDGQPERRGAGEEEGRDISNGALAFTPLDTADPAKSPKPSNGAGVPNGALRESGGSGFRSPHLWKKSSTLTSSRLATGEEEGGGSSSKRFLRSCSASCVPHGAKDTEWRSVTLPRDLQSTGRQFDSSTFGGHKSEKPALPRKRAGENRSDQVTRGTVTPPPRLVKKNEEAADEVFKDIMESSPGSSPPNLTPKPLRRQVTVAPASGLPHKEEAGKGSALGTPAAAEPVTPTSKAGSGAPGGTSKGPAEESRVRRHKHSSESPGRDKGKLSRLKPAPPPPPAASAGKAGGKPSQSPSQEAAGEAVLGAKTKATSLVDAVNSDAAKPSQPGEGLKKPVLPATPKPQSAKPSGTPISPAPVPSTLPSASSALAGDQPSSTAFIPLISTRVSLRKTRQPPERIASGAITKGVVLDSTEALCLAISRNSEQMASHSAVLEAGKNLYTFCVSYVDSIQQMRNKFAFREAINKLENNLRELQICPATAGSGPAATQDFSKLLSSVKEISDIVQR
Chain of Bcr/Abl fusion protein (P11274 whole entry, further chain, the tested form may be a part): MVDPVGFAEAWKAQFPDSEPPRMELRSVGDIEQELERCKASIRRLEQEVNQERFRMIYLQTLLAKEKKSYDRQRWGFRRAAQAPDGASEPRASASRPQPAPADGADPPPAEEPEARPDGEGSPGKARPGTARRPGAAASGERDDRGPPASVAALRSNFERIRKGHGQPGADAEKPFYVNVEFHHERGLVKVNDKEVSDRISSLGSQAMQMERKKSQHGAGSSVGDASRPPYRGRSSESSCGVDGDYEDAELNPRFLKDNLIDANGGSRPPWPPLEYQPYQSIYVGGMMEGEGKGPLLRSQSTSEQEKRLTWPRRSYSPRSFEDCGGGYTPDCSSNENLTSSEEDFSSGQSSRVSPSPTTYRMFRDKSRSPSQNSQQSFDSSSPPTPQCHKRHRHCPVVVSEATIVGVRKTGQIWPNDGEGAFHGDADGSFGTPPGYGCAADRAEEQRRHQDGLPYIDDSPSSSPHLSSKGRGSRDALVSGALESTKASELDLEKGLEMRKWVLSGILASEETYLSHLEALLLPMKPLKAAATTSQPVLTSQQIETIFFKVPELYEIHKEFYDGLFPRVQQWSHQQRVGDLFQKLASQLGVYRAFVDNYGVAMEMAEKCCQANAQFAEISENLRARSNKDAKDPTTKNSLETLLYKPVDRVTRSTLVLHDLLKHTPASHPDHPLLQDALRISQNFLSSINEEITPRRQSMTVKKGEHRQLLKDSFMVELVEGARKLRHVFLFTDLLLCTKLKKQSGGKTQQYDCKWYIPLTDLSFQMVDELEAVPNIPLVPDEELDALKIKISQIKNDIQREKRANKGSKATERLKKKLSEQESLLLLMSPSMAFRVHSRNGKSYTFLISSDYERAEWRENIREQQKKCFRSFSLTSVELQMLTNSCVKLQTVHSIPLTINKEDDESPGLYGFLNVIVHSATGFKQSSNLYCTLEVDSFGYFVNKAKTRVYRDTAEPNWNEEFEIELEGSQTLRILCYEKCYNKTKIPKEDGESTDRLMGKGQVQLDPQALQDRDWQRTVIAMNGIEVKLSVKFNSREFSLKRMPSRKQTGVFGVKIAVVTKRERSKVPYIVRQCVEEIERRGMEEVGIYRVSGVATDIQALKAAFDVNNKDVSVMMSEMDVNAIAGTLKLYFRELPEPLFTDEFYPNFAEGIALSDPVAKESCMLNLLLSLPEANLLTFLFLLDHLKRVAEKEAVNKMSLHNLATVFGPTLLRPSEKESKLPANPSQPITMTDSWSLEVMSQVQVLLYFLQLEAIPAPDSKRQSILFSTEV

SMILES: Nc1ncnc2c1c(-c1cccc(O)c1)cn2[C@H]1C[C@@H](CO)C1
IC50 (Bcr/Abl fusion protein): 0.043 µM

SMILES: CC(=O)N1CCN([C@H]2C[C@@H](n3cc(-c4ccc(O)cc4)c4c(N)ncnc43)C2)CC1
IC50 (BaF3 [1]): > 10 µM

SMILES: CC(=O)N1CCN([C@H]2C[C@@H](n3cc(-c4ccccc4O)c4c(N)ncnc43)C2)CC1
IC50 (BaF3 [1]): > 10 µM

The next lines start with results.

IC50 (BaF3 [1]): > 10 µM
SMILES: COc1cc(-c2cn([C@H]3C[C@@H](N4CCN(C(C)=O)CC4)C3)c3ncnc(N)c23)ccc1Cl

bioavailability [2]: 58%
AUC [3]: 54 µM·h
AUC at 336 h [5]: 106 µM·h
IC50 (BaF3 [1]): 2.6 µM
fCmax [6]: 0.031 µM
Cmax [7]: 9.5 µM
Cmax [8]: 7.4 µM
clearance [9]: 1.4 mL/min/kg
Vd [10]: 1.1 L/kg
fAUC [12]: 0.45 µM·h
AUC [13]: 160 µM·h
half-life [14]: 10 h
Cmax [16]: 5.6 µM
half-life [19]: 22 h
fraction unbound at 16 h, 5 µM [20]: 0.0042
SMILES: COC(=O)NC12CCC(n3cc(-c4ccc(Cl)c(N)c4)c4c(N)ncnc43)(CC1)CC2
Activity [4]: Non-Toxic
IC50 [11]: 3 µM
Activity (BaF3 [15]): Active
Activity [17]: Non-Toxic
IC50 [18]: 9.9 µM

IC50 (BaF3 [1]): 3.7 µM
SMILES: CC(=O)N1CCN([C@H]2C[C@@H](n3cc(-c4ccc(Cl)c(O)c4)c4c(N)ncnc43)C2)CC1
